Active and inactive are the calls of the source.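 How the source made its calls: active means Compounds that kill half the cells at a concentration of 5 micromolar or below, from the fitted or estimated CC50; inactive means CC50 above 5 micromolar.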

By CC50 is commonly meant the concentration at which the toxic effect on the cells reaches its halfway point.

The test system of the assay is Jurkat E6.1 viability, ATP luminescence, 48 h. The experiment in a line: viability loss in Jurkat T cells – cell-based, ATP luminescence, 48 h, 60K MLSMR, cytotoxicity control, dose response (AID 464).
For `Cc1ccc(C)c(N2CCN(C(=O)c3ccc(CS(=O)(=O)c4ccccc4C)o3)CC2)c1`, the CC50 is 14200 nM (inactive).
Under `CCOC(=O)C1CCCN(C(=O)c2cc3c(-c4cccc(OC)c4)nn(C)c3s2)C1` (centres undefined) stands 9760 nM (inactive); under `Cc1noc(C)c1CSc1nc2ccccc2c(=O)n1-c1ccccc1`, 2280 nM; under `CC(C)c1cc(C(=O)Nc2sc3c(c2C#N)CCC3)no1`, 15600 nM (inactive).
Regarding `COc1ccc(-c2nnc(NC(=O)c3ccc(S(=O)(=O)N4COCC4(C)C)cc3)o2)cc1`, the CC50 was 22700 nM (inactive).
Under `COc1cccc(-c2cc(C(=O)Nc3cccc(O)c3)no2)c1` stands > 40000 nM (inactive); under `CC(=O)Nc1ccccc1N(C)S(=O)(=O)c1ccc(C)cc1`, 4570 nM.
`CCOc1cc(N2CCOCC2)c(OCC)cc1NC(=O)COc1cccc2cccnc12`: the CC50 is 9130 nM (inactive).
Under `O=C(CSc1nnnn1C1CC2CCC1C2)Nc1ccnc2ccccc12` (centres undefined) stands 92 nM.
For the molecule `CSCCOC(=O)c1[nH]c2c(c1C)C(=O)CC(c1ccco1)C2` (centres undefined), the CC50 was 1670 nM.
Next, `COC(=O)c1[nH]c2c(c1C)C(=O)CC(c1cccs1)C2` (centres undefined): 677 nM; `O=C(N1CCN(c2ccccn2)CC1)N1c2ccccc2Sc2ccccc21`: 669 nM.
As to `O=C1N/C(=C\c2ccccc2)c2ccccc21`, the CC50 is > 4400 nM (inactive).
Turning to `COCCNc1nc2c(c(=O)n(C)c(=O)n2C)n1Cc1cccc(C)c1`, the CC50 was 25600 nM (inactive).
Under `O=C(c1ccco1)N1CCN(C(=O)N2c3ccccc3Sc3ccccc32)CC1` stands 99 nM.
Turning to `COc1ccc(C2=Nn3c(nnc3-c3ccccc3OC)SC2)cc1OC`, the CC50 is 116 nM.
Under `c1ccc(C(Cc2nc(-c3ccncc3)no2)c2ccccc2)cc1` stands 8520 nM (inactive).
In the case of `COc1cccc(-c2cc(C(=O)Nc3cc(OC)c(OC)c(OC)c3)no2)c1`, the CC50 was 8790 nM (inactive).
In the case of `CC(=O)C(C(C)=O)c1c(Cl)c(O)c(O)c2c(C(=O)c3ccccc3)coc12`, the CC50 was 8760 nM (inactive).
Under `COc1ccc(CCNc2ncnc3c2oc2ccccc23)cc1OC` stands 2720 nM; under `CCCCN(C)S(=O)(=O)c1ccc(C(=O)Nc2nnc(-c3cccs3)o2)cc1`, 14100 nM (inactive).
For `CC(C)c1cc(C(=O)Nc2cc(Cl)ccc2O)no1`, the CC50 was > 40000 nM (inactive).
Under `Cc1cc(C(=O)OCC(=O)NCc2ccco2)c(C)n1-c1ccc(F)cc1` stands 2340 nM; under `O=S(=O)(CCSc1nc2ccccc2o1)c1nc2ccccc2s1`, 7250 nM (inactive).
Next, `Oc1cccc2ccc(Nc3ccccn3)nc12`: 1970 nM; `COC(=O)c1sc(N)c(C(=O)OC)c1COC(=O)c1c(C)noc1C`: 2350 nM; `Oc1ccc(-c2nc(-c3ccc(O)c(O)c3)cs2)cc1`: 167 nM.
Next, `Cc1noc(C)c1CSc1nc2ccccc2nc1NS(=O)(=O)c1ccc(Cl)cc1`: 31500 nM (inactive).
For `CC1CCCCN1S(=O)(=O)c1ccc(C(=O)Nc2nnc(-c3cccs3)o2)cc1` (centres undefined), the CC50 was 13700 nM (inactive).
Next, `COc1ccccc1-c1nnc2sc(-c3cc4ccccc4o3)nn12`: 214 nM; `O=C(Nc1ccc(SC(F)F)cc1)c1ccc2nccnc2c1`: 13100 nM (inactive).
Next, `O=C(CCc1ccccc1)Nc1ccc(Cl)cn1`: 2150 nM.
In the case of `COc1cccc2sc(Nc3nc(-c4ccccn4)cs3)nc12`, the CC50 is 2810 nM.
Next, `CCOC(=O)c1c(-c2ccc(C)cc2C)csc1NC(=O)CSc1nnnn1C`: 35000 nM (inactive); `Cc1cccc(Cn2c(=O)n(CCCC(=O)NCc3ccco3)c(=O)c3ccccc32)c1`: 5140 nM (inactive).
`Cn1c(-c2ccccc2)cc2c3no[n+]([O-])c3ccc21`: the CC50 was 2410 nM.
Take `CCOC(=O)C1(N(CC)CC)Sc2cc(C)ccc2NC1=O` (centres undefined): the CC50 was 8810 nM (inactive).
Under `COc1ccc(C2NC(=O)NC3=C2CCc2ccccc23)cc1` (centres undefined) stands 4810 nM; under `O=C(Nc1nnc(-c2cccs2)o1)c1cccc(C(F)(F)F)c1`, 25700 nM (inactive); under `O=C(Nc1nc(-c2ccc(S(=O)(=O)N3CCCCCC3)cc2)cs1)c1cccs1`, > 40000 nM (inactive).
Under `Cc1cc(NC(=O)CSc2nc(-c3ccco3)cc(C(F)(F)F)n2)n(-c2ccccc2)n1` stands 4280 nM.
Under `CCOc1cc(C#N)c(NC(=O)c2ccco2)cc1OCC` stands 4310 nM; under `Cc1nnc(Sc2nc(Sc3nnc(C)s3)nc(N3CCN(C)CC3)n2)s1`, 1340 nM.
Consider `COc1ccc2c(c1)sc1nc(-c3ccccc3)cn12`, for which the CC50 is 750 nM.
Under `Cc1nc2ccccc2n1CC(=O)NCc1ccccc1` stands 5340 nM (inactive).
In the case of `C=CCn1c(SCc2c(C)noc2C)nc2cc(C(=O)O)ccc2c1=O`, the CC50 is 3400 nM.
Next, `COc1cc(N=Cc2c(O)[nH]c3ccccc23)cc(OC)c1OC`: 1580 nM; `CCOC(=O)NC1(Nc2ccc(Cl)cn2)Oc2ccccc2O1`: 12500 nM (inactive); `CN(Cc1ccccc1)S(=O)(=O)c1ccc(C(=O)Nc2nnc(C3CC3)o2)cc1`: 26000 nM (inactive).
With `CCCNc1nc2c(c(=O)n(C)c(=O)n2C)n1CCC(C)C`, the CC50 was 11900 nM (inactive).
For `O=S(=O)(NCc1ccncc1)c1ccc(Br)s1`, the CC50 was 1000 nM.
`CC(O)CNc1nc2c(c(=O)n(C)c(=O)n2C)n1Cc1cccc(Br)c1` (centres undefined): the CC50 is 22500 nM (inactive).
Under `CCCOc1ccccc1C1CC(=O)NC2=C1C(=O)CCC2` (centres undefined) stands 1520 nM; under `O=C(c1cccc(F)c1)N1CCN(c2cccc(Cl)c2)CC1`, 4550 nM.
Regarding `Oc1ccc(N=Cc2ccc(O)c(O)c2)cc1`, the CC50 is 25900 nM (inactive).
Under `O=C(Nc1cc(N2CCOCC2)ncn1)NC1(C(F)(F)F)Oc2ccc(Cl)cc2O1` (centres undefined) stands 4810 nM.
Under `CCN(C(=O)c1ccc(C(C)(C)C)cc1)c1nnc(Cn2nnc3ccccc32)s1` stands > 40000 nM (inactive); under `CC1CCCCC1NS(=O)(=O)c1ccc(S(=O)(=O)NCc2ccncc2)cc1` (centres undefined), 2370 nM.
For `O=C(Nc1nc(-c2ccc3c(c2)OCCO3)cs1)c1ccc(S(=O)(=O)N2CCCCC2)cc1`, the CC50 is 8300 nM (inactive).
On to `CC(=O)N1c2ccccc2N(Cc2ccc(C)cc2C)C(=O)C1(C)C`, for which the CC50 was 2220 nM.
Under `COc1ccc(CCNCc2csc3nc4ccccc4n23)cc1OC` stands 8020 nM (inactive); under `CC(C)Cc1cc(C(=O)Nc2cc(Br)ccc2O)no1`, > 40000 nM (inactive).
Next, `COc1cc(C(=O)N2CCN(c3ncnc4sc(C)c(C)c34)CC2)cc(OC)c1OC`: 2360 nM.
Consider `CCOC(=O)c1[nH]c2c(c1C)C(=O)CC(c1ccc(F)cc1)C2` (centres undefined), for which the cytotoxic concentration (CC50) was 708 nM.
For the molecule `COc1ccc(S(=O)(=O)Nc2cc(Cl)ccc2OC)cc1`, the CC50 was 1010 nM.
Next, `CC(C)Oc1ccccc1C1CC(=O)Nc2cc3c(cc21)OCCO3` (centres undefined): 576 nM; `COc1ccc(C2NCc3ccc4c(c3-n3cccc32)OCO4)cc1O` (centres undefined): 999 nM.
Next, `COc1ccccc1-c1cc(C(=O)Nc2cccnc2)no1`: 146 nM; `Nc1c(C(=O)Nc2ccc3c(c2)OCCO3)nnn1CCc1ccccc1`: 4230 nM; `O=C(Cc1ccc(-n2cccc2)cc1)NCc1cccs1`: 513 nM.
Next, `CCOC(=O)c1ccc(Oc2cc(C)nc(SC)n2)cc1`: 7920 nM (inactive); `CC(=O)CC1OC(=O)C(Br)=C1NCc1ccccc1` (centres undefined): 3910 nM.
With `CCOC(=O)CS(=O)(=O)c1nc(-c2ccccc2)cc(C(F)(F)F)n1`, the CC50 is 3420 nM.
`COc1ccc(-c2nc3cc(NC(=O)Cc4ccc(OC)c(OC)c4)ccc3o2)cc1`: the CC50 was > 40000 nM (inactive).
Next, `Cc1noc(C)c1CSc1nc2ccccc2c(=O)n1-c1ccc(F)cc1F`: > 4400 nM (inactive).
Under `CCN(CC)S(=O)(=O)c1cccc(C(=O)Nc2nc3cc4c(cc3s2)OCCO4)c1` stands 12800 nM (inactive).
Under `CN(C)c1ccc2c(c1)OC(N)=C(C#N)C2c1cccc(F)c1` (centres undefined) stands 106 nM.
Consider `CCOc1ccccc1NC(=O)CN(c1ccc(OC)cc1)S(=O)(=O)c1c(C)noc1C`, for which the CC50 was 1370 nM.
Next, `CCOC(=O)c1c(C)c(C(=O)Nc2ccc3c(c2)OCCO3)c(C)n1CC`: 7960 nM (inactive); `CS(=O)(=O)c1ncc(Cl)c(C(=O)Nc2ccc(N3CCOCC3)cc2)n1`: 2610 nM; `O=c1c2cc3ccccc3n2cnn1Cc1ccccc1F`: 16400 nM (inactive).
Under `Cc1cccc(N2CCN(C(=O)c3ccc(CS(=O)(=O)c4ccccc4C)o3)CC2C)c1` (centres undefined) stands 785 nM.
Take `CC1=C(C(=O)OCc2ccc3c(c2)OCO3)C(c2ccccc2)NC(=O)N1` (centres undefined): the CC50 is 17300 nM (inactive).
Consider `O=C(c1cccc(C(=O)N2CCN(c3ccc(F)cc3)CC2)c1)N1CCN(c2ccc(F)cc2)CC1`, for which the CC50 was > 40000 nM (inactive).
Under `COc1ccc(N2CCn3c2nc2c3c(=O)n(CCCc3ccccc3)c(=O)n2C)c(OC)c1` stands > 40000 nM (inactive).
Next, `O=C(CC(=O)c1ccccc1O)c1cccc(F)c1`: > 40000 nM (inactive); `CCOC(=O)C1=C(CNCc2ccc(C)cc2)NC(=O)NC1c1ccc(OC)cc1` (centres undefined): > 40000 nM (inactive).
Under `O=C(NCCSc1c[nH]c2ccccc12)c1ccc(Br)o1` stands > 40000 nM (inactive).
For the molecule `CC(=O)c1sc(NC(=O)C2(F)C(F)(F)C(F)(F)C(F)(F)C(F)(F)C2(F)F)nc1C`, the CC50 was > 13000 nM (inactive).
Next, `COc1cc(NS(=O)(=O)c2ccc(OC)c(C)c2C)c(OC)cc1Cl`: 1620 nM.
Next, `CCN(CC)c1ccc2cc(-c3nc4ccccc4n3C)c(=O)oc2c1`: 320 nM; `CCSc1nnc(NC(=O)c2ccccn2)s1`: 8300 nM (inactive).
Next, `CCN(CC)c1ccc2c(c1)OC(N)=C(C#N)C2c1cccnc1` (centres undefined): 19.2 nM; `Cc1conc1NC(c1cccs1)c1ccc2cccnc2c1O` (centres undefined): > 13000 nM (inactive).

Values taken from PubChem BioAssay AID464 (The Scripps Research Institute Molecular Screening Center, 2006).
